Assay results taken from patent publication US10933032B2, “Methods for the treatment of cancer using coenzyme Q10 combination therapies” (Berg LLC, priority 2013, dated 2021).
Entries after “also recorded” stand apart in the source; their conditions may differ.

How the values were obtained:
[1] = tested on: MDA-MB213 breast cancer cells; test: Basal oxygen consumption rate (OCR) and extracellular acidification rate (ECAR); assay type: cell-based; conditions: 100 μM CoQ10 for 24 hours, FIG. 17
Experimental: Cells were treated with 100 μM CoQ10 for 24 hours.
Mitochondria represent a significant source of ROS which are known to participate in activation of cell death pathways.

[2] = tested on: MIAPaCa-2 pancreatic cancer cells; assay type: cell-based; conditions: CoQ10 (100 μM) pre-treatment (6 hours) and co-treatment regimen, FIGS. 11-14
[3] = tested on: MIAPaCa-2 human pancreatic tumor cells; test: Xenogeneic mouse human pancreatic cancer model, tumors harvested at mortality (size, weight, vasculature, palpation); assay type: in vivo, NOD scid gamma (NSG) mice
[4] = tested on: normal cells, including keratinocytes and dermal fibroblasts; test: Proliferation and migration of normal cells; assay type: cell-based
[5] = in vivo; conditions: rat, rats, given three times per week for 4 weeks
[6] = Prior experiments, signs of toxicity; assay type: in vivo; conditions: three times per week at up to 50 mg/kg
Experimental: Sterile CoQ10 formula and the suitable sterile control is administered intravenously. CoQ10 doses are administered based on ongoing results. […] The effect of CoQ10 is compared with other chemotherapy regimens specific for each cancer line. Another arm of the study evaluates synergistic effects between CoQ10 and other chemotherapeutic agents.

[7] = tested on: tumors; conditions: Example 8, written in present tense
Experimental: In an in vivo tumor xenograft model, mice are implanted with tumors. For example, MIAPaCa-2 pancreatic cancer cells suspended in [sequence] are injected into NSG mice. Alternatively, other tumor cell lines, e.g., triple negative breast cancer, hepatic cancer, prostate cancer, melanoma, sarcoma, carcinoma cell lines, are used in the xenograft mouse model.
Various sequential regimens and combinations of CoQ10 and chemotherapeutic agents are tested for the ability to reduce tumor burden and/or reduce tumor metastasis. […] For example, in some animals, 2 or more cycles of CoQ10 are administered in Treatment 1 prior to one or more cycles of the chemotherapeutic agent in Treatment 2. In some animals, one cycle of CoQ10 is administered in Treatment 1 prior to administration of multiple cycles of chemotherapy in Treatment 2.
Tumor volumes are monitored using routine methods, e.g., calipers, imaging analysis. At the end of the study, tumors are excised and analyzed for using routine methods, e.g., for size (e.g., weight and volume), histological characteristics, grade, and vascularization.

[8] = tested on: MIAPaCa-2 human pancreatic tumor cells; test: Xenogeneic mouse human pancreatic cancer model, survival; assay type: in vivo, NOD scid gamma (NSG) mice; conditions: for Survival (prolongation of life) compared to untreated control: Example 1, Regimen 1, single agent: IV 4% Coenzyme Q10 50 mg/kg/day, or IV gemcitabine 150 mg/kg/week for 3 weeks with one week rest; for Survival, combination of CoQ10 and gemcitabine vs other groups: Example 1, Regimen 1: IV CoQ10 50 mg/kg/day + IV gemcitabine 150 mg/kg weekly for 3 weeks with one week rest
[9] = tested on: MDA MB 468; test: Induction of early apoptosis (Bcl-2, annexin V, or caspase activation); assay type: cell-based; conditions: BREAST: MDA MB 468
Experimental: (§1) The effects of Coenzyme Q10 treatment on a variety of oncogenic and normal cell lines were examined and compared. The sensitivity of cells to Coenzyme Q10 was assessed by monitoring induction of apoptosis. CoQ10 treatment of cells was carried out as described in detail below in the Materials and Methods. Induction of apoptosis was assessed in the treated cells by monitoring indicators of early apoptosis (e.g., Bcl-2 expression, caspase activation and by using annexin V assays) as described below. From these studies, the minimal CoQ10 dosage, e.g., concentration of CoQ10 and time of treatment, required to induce apoptosis in the panel of cell lines was determined.
(§2) Cells were cultured in T-75 flasks with relevant medium supplemented with 10% Fetal Bovine Serum (FBS), 1% PSA (penicillin, streptomycin, amphotericin B) (Invitrogen and Cellgro) in a 37° C. incubator with 5% CO2 levels until 70-80% confluence was reached. To harvest cells for treatment, flasks were primed with 1 mL Trypsin, aspirated, trypsinized with an additional 3 mL, and incubated at 37° C. for 3-5 minutes. Cells were then neutralized with an equal volume of media and the subsequent solution was centrifuged at […] for 8 minutes. The supernatant was aspirated and the cells were resuspended with 8.5 ml of media. A mixture of 500 ul of the resuspension and 9.5 ml of […] was read twice by a coulter counter and the appropriate number of cells to be seeded into each dish was determined. Control and concentration ranging from 0-200 μM groups were examined in triplicate. From a 500 μM CoQ-10 stock solution, serial dilutions were performed to achieve desired experimental concentration in appropriate dishes. Dishes were incubated in a 37° C. incubator with 5% CO2 levels for 0-72 hours depending on cell type and experimental protocol.
(§3) Following cell treatment incubation period was complete, protein isolation was performed. Dishes of all treatment groups were washed twice with 2 ml, and once with 1 ml of ice cold 1× Phosphate Buffered Saline (PBS). The PBS was aspirated from the dishes after the initial 2 washes only. Cells were gently scraped and collected into microcentrifuge tubes using the final volume from the third wash and centrifuged at 10,000 rpm for 10 minutes. After centrifugation, the supernatant was aspirated and the pellet was lysed with 50 uL of lysis buffer (1 uL of protease and phosphotase inhibitor for every 100 uL of lysis buffer). Samples were then frozen overnight at −20° C.
(§4) After the cell treatment incubation period was complete, protein isolation was performed. Flasks of all treatment groups were washed twice with 5 mL, and once with 3 mL of ice cold 1×PBS. The PBS was aspirated from the flasks after the first 2 washes only. Cells were gently scraped and collected into 15 mL centrifuge tubes using the final volume from the third wash and centrifuged for at 10,000 rpm for 10 minutes. After centrifugation, the supernatant was aspirated and the pellet was lysed with an appropriate amount of lysis buffer (1 uL of protease and phosphotase inhibitor for every 100 uL of lysis buffer). Lysis buffer volume was dependent on pellet size. Samples were transferred in microcentrifuge tubes and frozen overnight at −20° C.
(§5) Samples were thawed at […] and sonicated to ensure homogenization the day following protein isolation. Protein quantification was performed using the micro BCA protein assay kit (Pierce). To prepare samples for Immuno-blotting, a 1:19 solution of betamercaptoethanol (Sigma) to sample buffer (Bio-Rad) was prepared. Samples were diluted 1:1 with the betamercaptoethanol-sample buffer solution, boiled at 95° C. for 5 minutes, and frozen overnight at −20° C.
(§6) The volume of sample to load per well was determined using the raw mean concentration of protein obtained from the BCA protein assay. Approximately 30-60 μg of protein were loaded for each treatment time point. […]

[10] = tested on: PaCa2; test: as above; assay type: cell-based; conditions: PANCREAS: PaCa2
Experimental: as §1, §2, §3, §4, §5, §6

[11] = tested on: Osteosarcoma (143b); test: as above; assay type: cell-based; conditions: BONE: Osteosarcoma (143b)
Experimental: as §1, §2, §3, §4, §5, §6

[12] = tested on: SCC, Squamous cell carcinoma; test: as above; assay type: cell-based; conditions: SKIN: SCC
Experimental: as §1, §2, §3, §4, §5, §6

## COC1=C(OC)C(=O)C(C/C=C(\C)CC/C=C(\C)CC/C=C(\C)CC/C=C(\C)CC/C=C(\C)CC/C=C(\C)CC/C=C(\C)CC/C=C(\C)CC/C=C(\C)CCC=C(C)C)=C(C)C1=O [CoQ10, Coenzyme Q10]
[1]
  Ratio of OCR to ECAR: higher ratio of OCR to ECAR
[2]
  Cytotoxic potential of gemcitabine: augmented the cytotoxic potential of gemcitabine
[3]; Example 1, single agents: Group 2 Coenzyme Q10 IV 50 mg/kg/day, Group 3 gemcitabine 150 mg/kg/week, FIG. 2
  Growth of pancreatic tumors (tumor size at time of death) vs control: inhibited the growth of pancreatic tumors; also recorded: inhibits pancreatic tumor growth
[3]; Example 1, intravenous Coenzyme Q10 vs untreated control mice, not quantified
  Tumor vasculature (histological analysis): decreased tumor vasculature; also recorded: decrease in the amount of vasculature in pancreatic tumors
[3]; Example 1, vs Coenzyme Q10 alone or gemcitabine alone, FIG. 3
  Tumor weight / tumor growth, combination of Coenzyme Q10 and gemcitabine (Group 4): significantly smaller than tumors from mice treated with Coenzyme Q10 alone; also recorded: more effective at inhibiting the growth of pancreatic tumors in mice than treatment with either agent alone
[3]; Example 1, vs control group and gemcitabine treated group, FIG. 3
  Tumor weight at mortality, Coenzyme Q10 alone (Group 2): significantly smaller than tumors from mice in the control group
[4]
  Proliferation and migration in normal cells: increased proliferation and migration
[5]
  MTD at 4 weeks: 250 mg/kg
[6]
  Signs of toxicity: no signs of toxicity
[7]
  Efficacy (tumor burden), one or more cycles of CoQ10 prior to a chemotherapeutic agent: more effective than co-administration of CoQ10 with a chemotherapeutic agent or a chemotherapeutic agent alone
[8]; 50 mg/kg CoQ10, FIG. 30
  Survival rate (survival probability) at 300 days: lowest survival rate
[8]; 100 mg/kg CoQ10, FIG. 30
  Survival rate (survival probability) at 300 days: between the other two treatment groups
[8]; 200 mg/kg CoQ10, FIG. 30
  Survival rate (survival probability) at 300 days: highest survival rate
[8]; CoQ10 200 mg/kg, vs gemcitabine+CoQ10 from the start, gemcitabine or CoQ10 alone, FIG. 31
  Survival, pretreatment with CoQ10 for sixty days followed by gemcitabine+CoQ10: improved survival in comparison to treatment with gemcitabine+CoQ10 from the start of the treatment regimen; also recorded: improved survival outcomes
[8]; CoQ10 60 days prior to start of gemcitabine and continuing with CoQ10, FIG. 31
  Survival rate (survival probability) at 200 days: highest survival rate
[8]; CoQ10 alone or CoQ10 in combination with doxorubicin, vs gemcitabine or doxorubicin
  Responses associated with favorable therapeutic endpoints, most notably an increase in survival: more effective than gemcitabine or doxorubicin
[8]; CoQ10 from the start (alone), FIG. 31
  Survival rate (survival probability) at 200 days: next highest survival rate
[8]; FIG. 1
  Survival (prolongation of life) compared to untreated control: prolongation of life as compared to untreated control
  Survival, combination of CoQ10 and gemcitabine vs other groups: prolonged survival and long-term remission that was statistically significant compared to other groups
[8]; FIG. 1, listed as Coenzyme Q10
  Survival (prolongation of life) compared to untreated control: increases survival time of the mice
  Survival, combination of CoQ10 and gemcitabine vs other groups: more effective at increasing survival time in mice bearing pancreatic tumors than treatment with either agent alone
[8]; Example 1, Regimen 1: IV CoQ10 50 mg/kg/day vs gemcitabine 150 mg/kg/week, FIG. 1
  Impact on survival, CoQ10 alone vs gemcitabine alone: significantly greater impact on survival than gemcitabine alone
[8]; Example 2, Regimen 2: 4% CoQ10 intravenous formulation 50 mg/kg intraperitoneally twice daily, 3 weeks with one week rest, vs untreated or gemcitabine alone, FIG. 4
  Survival, CoQ10 alone: increase in survival
[8]; Example 2, Regimen 2: CoQ10 50 mg/kg IP twice daily + gemcitabine 150 mg/kg once per week, vs untreated or gemcitabine alone, FIG. 4
  Survival, CoQ10 in combination with gemcitabine: increase in survival
[8]; Example 4, once daily dosing with intravenous CoQ10, FIG. 7
  Survival (viability, mortality), CoQ10 in combination with doxorubicin vs doxorubicin alone: decreased mortality rates
[8]; Example 5, Regimen 3: IP 4% CoQ10 intravenous formulation 50 or 75 mg/kg/dose, 3 times daily, FIG. 8
  Survival, Coenzyme Q10 alone vs control animals: significantly increased survival as compared to control animals
[8]; Example 5, Regimen 3: IP CoQ10 50 or 75 mg/kg/dose 3 times daily + IV gemcitabine 150 mg/kg weekly for 3 weeks with one week rest, FIG. 8
  Survival, combination of Coenzyme Q10 and gemcitabine vs same dose of Coenzyme Q10 alone: increased survival as compared to mice treated with the same dose of Coenzyme Q10 alone
[8]; Example 11, IP CoQ10 75 mg/kg/dose 3 times daily, gemcitabine 150 mg/kg weekly initiated 1-3 weeks later, early time points, FIG. 15
  Survival, pretreatment with CoQ10 followed by gemcitabine vs co-treatment regimen: improved survival
[8]; Example 11, latest time point, FIG. 15
  Survival, CoQ10 + gemcitabine vs untreated control: increases the survival in a statistically significant manner as compared to untreated control
[8]; Example 17, Regimen 3: 50 mg/kg or 75 mg/kg, FIG. 29
  Survival, dose dependence: dose dependent increase in survival
[8]; Example 17, Regimen 3, FIG. 29
  Effect on survival when combined with gemcitabine: additive effect to gemcitabine
[8]; Example 17, best outcomes at 200 mg/kg, FIG. 30
  Survival rates, continuous infusion of CoQ10 vs three doses (50 mg/kg or 75 mg/kg): significantly improved survival rates compared to three doses
[8]; FIG. 30
  Survival, continuous infusion of CoQ10 at 200 mg/kg vs 50 mg/kg: significantly improved survival in comparison to 50 mg/kg CoQ10
[8]; gemcitabine and CoQ10 from the start, FIG. 31
  Survival rate (survival probability) at 200 days: next highest survival rate
[9]
  Indication of Early apoptosis (Bcl-2, annexin V, or caspase activation): Strong
  Minimal CoQ10 concentration required for induction of early apoptosis, Concentration: 100 µM
  Minimal treatment time required for induction of early apoptosis, Time: 48 h
[10]
  Indication of Early apoptosis (Bcl-2, annexin V, or caspase activation): Very Strong
  Minimal CoQ10 concentration required for induction of early apoptosis, Concentration: 25 µM
  Minimal treatment time required for induction of early apoptosis, Time: 24 h
[11]
  Indication of Early apoptosis (Bcl-2, annexin V, or caspase activation): Very Strong
  Minimal CoQ10 concentration required for induction of early apoptosis, Concentration: 50 µM
  Minimal treatment time required for induction of early apoptosis, Time: 48 h
[12]
  Indication of Early apoptosis (Bcl-2, annexin V, or caspase activation): Very Strong
  Minimal CoQ10 concentration required for induction of early apoptosis, Concentration: 25 µM
  Minimal treatment time required for induction of early apoptosis, Time: 24 h
